“Also recorded” adds a separate entry of the source.
Tests used:
[1] = system: CD44+/CD24- cell population of MC1, UM2, UM3 xenografts; test: CD44+/CD24- cells in treated tumors (flow cytometry); design: species or system NOD/SCID mice; conditions: mouse, in vivo
Method: (§1) Animal model. […] Cells from these tumors were transplanted orthotopically in the humanized cleared fat-pad of NOD/SCID mice, without cultivation in vitro. […] 50,000 cells from each xenotransplants were injected in the humanized fat pad of NOD/SCID mice and monitored the tumor growth. […] The animals were euthanized when the tumors were approximately 1.5 cm in the largest diameter, to avoid tumor necrosis and in compliance with regulations for use of vertebrate animal in research. A portion of each fat pad injected was fixed in formalin and embedded in paraffin for histological analysis. The rest of the tumor cells were re-implantated into secondary NOD/SCID mice. Serial dilutions of cells were utilized for the re-implantation with injection of 10,000, 1,000, and 100 cells for each treated tumor.
Flow cytometry analysis. […] CD95/FAS staining were performed utilizing an anti-CD95 labeled APC (1:20, BD biosciences). […] Fresh cells were stained with 1 μg/ml PI (Sigma) for 5 min for viability.

[2] = system: cells from primary tumors SUM159, MC1, UM2, UM3; test: Re-implantation of cells from treated tumors into secondary mice; format: in vivo, NOD/SCID mice
Method: as §1, with “Serial dilutions of cells were utilized for the re-implantation with injection of 10,000, 1,000, and 100 cells for each treated tumor.” left out

[3] = system: ALDH1; test: Immunohistochemistry of ALDH1 in xenotransplants; format: in vivo, NOD/SCID mice; conditions: compared to untreated tumors
Method: (§2) Immunostaining. For immunofluorescent staining, sorted CXCR1-positive cells were fixed with 95% methanol at −20° C. for 10 minutes. Cells were rehydrated in PBS and incubated with respective antibodies at room temperature for 1 hour. Primary antibodies used were P-FAK (1:50, Cell Signaling Technology), P-AKT (1:300, Cell Signaling Technology), and FOXO3a (1:250, Cell Signaling Technology). Slides were then washed and incubated 30 minutes with PE conjugated secondary antibodies (Jackson labs). The nuclei were counterstained with DAPI/antifade (Invitrogen) and coverslipped. […] Immunohistochemistry for the detection of ALDH1 (1:100, BD biosciences), P-FAK, P-AKT, FOXO3a expression was done on paraffin section (Ginestier et al. Am. J Pathol. 161:1223-1233, herein incorporated by reference in its entirety). Staining was done utilizing the Histostainplus kit (Zymed laboratories). Diaminobenzidine (DAB) or 3-amino-9-ethylcarbazole (AEC) was used as chromogen and sections were counterstained with hematoxylin.

[4] = system: ALDEFLUOR-positive cells of SUM159, MC1, UM2, UM3 tumors; test: ALDEFLUOR assay on treated tumor xenografts; format: in vivo, NOD/SCID mice; conditions: residual tumors after four weeks of treatment; trihydrate
Method: ALDEFLUOR assay. […] In order to eliminate cells of mouse origin from the xenotransplanted tumors, cell population was stained with an anti-H2Kd antibody (BD biosciences, 1/200, 20 min on ice) followed by staining with a secondary antibody labeled with phycoerythrin (PE) (Jackson labs, 1/250, 20 min on ice).
as §1

[5] = system: FOXO3A; test: Immunohistochemistry of FOXO3A in xenotransplants; design: species or system NOD/SCID mice; conditions: mouse, in vivo
Method: as §2

[6] = system: FAS-ligand mRNA; test: Quantitative RT-PCR of FAS-ligand mRNA in SUM159 cells; format: cell-based, human; conditions: repertaxin 100 nM, FAS agonist 500 ng/ml, docetaxel 10 nM, trihydrate
Method: RNA extraction and qRT-PCR. After SUM159 cells were treated, total RNA was isolated using RNeasy Mini Kit (QIAGEN) and utilized for real-time quantitative RT-PCR (qRT-PCR) assays in a ABI PRISM® 7900HT sequence detection system.

[7] = system: SUM159 cell line and human breast cancer xenografts MC1, UM2, UM3; test: Tumor growth of breast cancer xenografts in the mammary fat pad; format: in vivo, NOD/SCID mice; conditions: repertaxin 15 mg/Kg s.c. twice a day 28 days, docetaxel 10 mg/Kg i.p. once a week, start at tumor size about 4 mm, trihydrate
Method: For each sample, 50,000 cells were injected into the mammary fat pad of NOD-SCID mice which were monitored for tumor size. Injections were started when the tumor size was about 4 mm.
as §1

[8] = system: ALDEFLUOR-positive and -negative cells of HCC1954, MDA-MB-453, SUM159; test: Matrigel invasion assay with IL8 as attractant; format: cell-based, human; conditions: IL8 100 ng/ml as attractant
Method: Invasion assay. Assays were done in triplicate in transwell chambers with 8 μm pore polycarbonate filter inserts for 12-well plates (Corning, N.Y.). Filters were coated with 30 ul of ice-cold 1:6 basement membrane extract (Matrigel, BD-Bioscience) in DMEM/F12 incubated 1 hour at 37° C. Cells were added to the upper chamber in 200 ul of serum-free medium. For the invasion assay, 5000 cells were seeded on the Matrigel-coated filters and the lower chamber was filled with 600 ul of medium supplemented with 10% human serum (Cambrex) or with 600 ul of serum-free medium supplemented with IL8 (100 ng/mL). After 48 hours incubation, the cells on the underside of the filter were counted using light microscopy. Relative invasion was normalized to the unseparated corresponding cell lines under serum condition.

[9] = system: four breast cell lines cultured in adherent conditions; test: ALDEFLUOR-positive population of breast cell lines treated with IL8; format: cell-based; conditions: human recombinant IL8
Method: ALDEFLUOR Assay and Separation of the ALDH-positive Population by FACS. ALDH activity was assessed in 33 BCLs representing the main molecular subtypes of human breast cancer. The ALDEFLUOR kit (StemCell technologies, Durham, N.C., USA) was used to isolate the population with high ALDH enzymatic activity (17). Cells obtained from subconfluent cell lines after trypsinization or from freshly dissociated xenografts were suspended in ALDEFLUOR assay buffer containing ALDH substrate (BAAA, 1 μmol/l per 1×10^6 cells) and incubated for 40 minutes at 37° C. In each experiment a sample of cells was stained under identical conditions with […] of diethylaminobenzaldehyde (DEAB), a specific ALDH inhibitor, as negative control. Flow cytometry sorting was conducted using a FACStarPLUS (Becton Dickinson). ALDEFLUOR fluorescence was excited at 488 nm and detected using standard fluorescein isothiocyanate (FITC) 530/30 band pass filter. For xenotransplanted tumors, incubation with an anti-H2Kd antibody (BD biosciences, 1/200, 20 min on ice) followed by a secondary antibody labeled with phycoerythrin (Jackson labs, 1/250, 20 min on ice) was used to eliminate cells of mouse origin. […] For both cell lines, sorted ALDEFLUOR-positive populations contained more than 98% of ALDEFLUOR-positive cells and no ALDEFLUOR-positive cells were detected in the ALDEFLUOR-negative population.

[10] = system: normal mammary epithelial cells; test: Mammosphere formation by normal mammary epithelial cells; format: cell-based, human; conditions: normal mammary epithelial cells in suspension, human recombinant IL-8
[11] = system: HCC1954, SUM159, MDA-MB-453; test: Tumorsphere formation of breast cell lines treated with IL8; format: cell-based; conditions: human recombinant IL8
Method: Anchorage-independent culture. ALDEFLUOR-positive, -negative and unseparated cells from 184A1, SUM149 and SUM159 were plated as single cells in ultra-low attachment plates (Corning, Acton, Mass.) at low density (5000 viable cells/ml). Cells were grown in serum-free mammary epithelial basal medium (Cambrex Bio Science, Walkerville, Md.) for 3-7 days, as described (18). The capacity of cells to form spheres was quantified after treatment with different doses of IL8 (GenWay Biotech, San Diego, Calif.) added to the medium.

CC(=O)O[C@@]12CO[C@@H]1C[C@H](O)[C@@]1(C)C(=O)[C@H](O)C3=C(C)[C@@H](OC(=O)[C@H](O)[C@@H](NC(=O)OC(C)(C)C)c4ccccc4)C[C@@](O)([C@@H](OC(=O)c4ccccc4)[C@H]21)C3(C)C [Docetaxel, (2R,3S)-N-carboxy-3-phenylisoserine, N-tert-butyl ester, 13-ester with 5b-20-epoxy-12a,4,7b,10b,13a-hexahydroxytax-11-en-9-one 4-acetate 2-benzoate, trihydrate]
percent of CD44+/CD24- cells in residual tumors [1]: unchanged or increased percent
Tumors/Injections ([2]; number of cells injected 100): 8/9
Tumors/Injections ([2]; number of cells injected 250): 2/3
Tumors/Injections ([2]; number of cells injected 500): 3/4
Tumors/Injections ([2]; number of cells injected 1,000): 6/6
Tumors/Injections ([2]; number of cells injected 2,500): 2/2
Tumors/Injections ([2]; number of cells injected 5,000): 4/4
Tumors/Injections ([2]; number of cells injected 10,000): 2/2
secondary tumor formation / regrowth from serial dilutions of treated primary tumors ([2]; secondary NOD/SCID mice, no further treatment, trihydrate): formed secondary tumors at all dilutions
ALDH1-positive cells / ALDH1 expression in treated tumors [3]: unchanged or increased
ALDEFLUOR-positive cells (cancer stem cells) in treated tumors, decrease compared to the control [4]: unchanged or increased
nuclear FOXO3A in treated tumors [5]: detected
increase of FAS-ligand mRNA level compared to non-treated cells ([6]; listed as docetaxel): induced both IL-8 and FAS-ligand mRNA
increase of FAS-ligand mRNA level compared to non-treated cells [6]: induced both FAS-ligand (A) and IL-8 (B) mRNA
tumor size / tumor growth compared to the control ([7]; listed as docetaxel): significant inhibition of tumor growth; also recorded: statistically significant reduction of the tumor size
tumor size / tumor growth compared to the control [7]: statistically significant reduction of the tumor size

IL8: human recombinant IL8 (GenWay Biotech), chemokine ligand of CXCR1
invasive capacity of ALDEFLUOR-negative cells [8]: did not have any effect; also recorded: no effect
invasion of ALDEFLUOR-positive cells through Matrigel ([8]; compared to serum): increased invasion; also recorded: significant increase
ALDEFLUOR-positive population [9]: increased the ALDEFLUOR-positive population in a dose-dependent manner
formation of primary and secondary mammospheres [10]: increased the formation of primary (B) and secondary mammospheres (C) in a dose-dependent manner
formation of primary and secondary mammospheres ([10]; listed as IL-8): increased the formation of primary and secondary mammospheres in a dose-dependent manner
formation of primary and secondary tumorspheres [11]: increased the formation of primary and secondary tumorspheres in a dose-dependent manner; also recorded: increased the formation of primary and secondary tumorospheres in a dose-dependent manner
